We go through nine molecules from ChEMBL document CHEMBL4725389, “Novel Blocker of Onco SK3 Channels Derived from Scorpion Toxin Tamapin and Active against Migration of Cancer Cells” (ACS Med Chem Lett, 2020).

Active and inactive are the calls of the source. No cut-off for these calls is given here. Positions of bridges follow the written chain, without caps; N, C: chain ends. Residues, ends and D or L forms follow the SMILES beside them.

Experiment [1] has as its target Small conductance calcium-activated potassium channel protein 2 (Rattus norvegicus) (UniProt P70604). The experiment can be described thus: Inhibition of recombinant rat SK2 expressed in HEK293 cells at 10 nM and holding potential at 0 mV and ramp voltage from -100 to 100 mV by whole cell patch clamp method relative to control. It is filed as cell-based.
The target of experiment [2] is Small conductance calcium-activated potassium channel protein 3 (Homo sapiens, UniProt Q9UGI6). The experiment can be described thus: Inhibition of recombinant human SK3 expressed in HEK293T cells at 10 nM and holding potential at 0 mV and ramp voltage from -100 to 100 mV by whole cell patch clamp method relative to control. It counts as cell-based. The note with it: HEK-293T.
Chain of Small conductance calcium-activated potassium channel protein 3 (Q9UGI6 whole entry): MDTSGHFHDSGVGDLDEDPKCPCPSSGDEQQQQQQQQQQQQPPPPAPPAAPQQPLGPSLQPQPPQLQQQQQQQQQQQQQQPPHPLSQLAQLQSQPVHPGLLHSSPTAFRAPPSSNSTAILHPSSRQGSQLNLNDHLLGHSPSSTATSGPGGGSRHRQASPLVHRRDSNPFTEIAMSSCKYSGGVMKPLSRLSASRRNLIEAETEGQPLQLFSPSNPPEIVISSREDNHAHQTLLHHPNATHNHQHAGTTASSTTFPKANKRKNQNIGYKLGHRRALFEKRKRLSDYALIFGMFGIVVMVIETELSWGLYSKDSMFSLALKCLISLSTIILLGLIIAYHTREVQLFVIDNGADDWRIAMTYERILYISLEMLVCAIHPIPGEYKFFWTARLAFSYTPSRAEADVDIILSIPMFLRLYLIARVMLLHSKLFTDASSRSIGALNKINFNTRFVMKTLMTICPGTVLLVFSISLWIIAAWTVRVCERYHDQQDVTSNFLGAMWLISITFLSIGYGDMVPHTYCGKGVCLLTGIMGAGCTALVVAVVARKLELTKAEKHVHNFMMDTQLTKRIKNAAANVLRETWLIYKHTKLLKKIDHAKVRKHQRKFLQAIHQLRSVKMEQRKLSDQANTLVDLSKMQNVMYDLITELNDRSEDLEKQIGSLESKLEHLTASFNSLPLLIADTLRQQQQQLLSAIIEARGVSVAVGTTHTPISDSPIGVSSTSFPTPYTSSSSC

Chain of Small conductance calcium-activated potassium channel protein 2 (Rattus norvegicus) (P70604 whole entry): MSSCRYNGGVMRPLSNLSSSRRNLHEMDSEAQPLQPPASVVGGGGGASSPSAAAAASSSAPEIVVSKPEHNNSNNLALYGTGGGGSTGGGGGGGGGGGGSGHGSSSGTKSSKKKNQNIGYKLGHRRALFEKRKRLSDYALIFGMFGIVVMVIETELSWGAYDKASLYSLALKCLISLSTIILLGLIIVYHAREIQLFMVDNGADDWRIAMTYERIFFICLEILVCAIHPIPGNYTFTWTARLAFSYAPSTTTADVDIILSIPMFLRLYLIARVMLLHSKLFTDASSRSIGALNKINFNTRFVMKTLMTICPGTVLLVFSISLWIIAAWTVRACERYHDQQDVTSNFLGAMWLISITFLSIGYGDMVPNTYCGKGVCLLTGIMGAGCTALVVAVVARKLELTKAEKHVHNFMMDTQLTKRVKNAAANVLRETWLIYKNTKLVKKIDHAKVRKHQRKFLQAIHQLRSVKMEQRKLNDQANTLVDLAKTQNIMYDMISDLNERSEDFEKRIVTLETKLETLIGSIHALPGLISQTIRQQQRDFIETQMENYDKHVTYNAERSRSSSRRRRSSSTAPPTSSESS

Consider `CC[C@H](C)[C@@H]1NC(=O)[C@@H]2CSSC[C@H](NC(=O)[C@H](Cc3ccccc3)NC(=O)[C@H](C)N)C(=O)N[C@@H](CC(N)=O)C(=O)N[C@@H](CC(C)C)C(=O)N[C@@H](CCCNC(=N)N)C(=O)N[C@@H](CCCNC(=N)N)C(=O)N[C@H]3CSSC[C@H](NC(=O)[C@H](CCC(=O)O)NC(=O)[C@H](CCC(=O)O)NC(=O)CNC1=O)C(=O)N[C@@H](CCCCN)C(=O)N[C@H](C(=O)N[C@H](C(=O)N1CCC[C@H]1C(=O)N[C@@H](Cc1ccc(O)cc1)C(=O)O)C(C)C)CSSC[C@H](NC(=O)[C@H](CO)NC(=O)[C@H](CC(C)C)NC(=O)[C@H](CCC(=O)O)NC3=O)C(=O)N[C@@H](CCCNC(=N)N)C(=O)N[C@@H](CO)C(=O)N[C@@H](CC(C)C)C(=O)NCC(=O)N[C@@H](CC(C)C)C(=O)N[C@@H](CC(C)C)C(=O)NCC(=O)N[C@@H](CCC(=O)O)C(=O)N2` (H-AFCNLRRCELSCRSLGLLGECIGEECKCVPY-OH; disulfide 3-21, 8-26, 12-28), for which the inhibition is more than 85% in experiment [1] and less than 39% in experiment [2].
Taken in the same sequence, the figures for `CC[C@H](C)[C@@H]1NC(=O)[C@@H]2CSSC[C@H](NC(=O)[C@H](Cc3ccccc3)NC(=O)[C@H](C)N)C(=O)N[C@@H](CC(N)=O)C(=O)N[C@@H](CC(C)C)C(=O)N[C@@H](CCCNC(=N)N)C(=O)N[C@@H](CCCNC(=N)N)C(=O)N[C@H]3CSSC[C@H](NC(=O)[C@H](CCC(=O)O)NC(=O)[C@H](CCC(=O)O)NC(=O)CNC1=O)C(=O)N[C@@H](CCCCN)C(=O)N[C@H](C(=O)N[C@H](C(=O)N1CCC[C@H]1C(=O)N[C@@H](Cc1ccc(O)cc1)C(=O)O)C(C)C)CSSC[C@H](NC(=O)[C@H](CO)NC(=O)[C@H](CC(C)C)NC(=O)[C@H](CCC(=O)O)NC3=O)C(=O)N[C@@H](CCCNC(=N)N)C(=O)N[C@@H](CO)C(=O)N[C@@H](CC(C)C)C(=O)NCC(=O)N[C@@H](CC(C)C)C(=O)N[C@@H](CC(C)C)C(=O)NCC(=O)N[C@@H](C)C(=O)N2` (H-AFCNLRRCELSCRSLGLLGACIGEECKCVPY-OH; disulfide 3-21, 8-26, 12-28) were more than 85% and “inactive”.
Taken in the same sequence, the figures for `CC[C@H](C)[C@@H]1NC(=O)[C@@H]2CSSC[C@H](NC(=O)[C@H](Cc3ccccc3)NC(=O)[C@H](C)N)C(=O)N[C@@H](CC(N)=O)C(=O)N[C@@H](CC(C)C)C(=O)N[C@@H](CCCNC(=N)N)C(=O)N[C@@H](CCCNC(=N)N)C(=O)N[C@H]3CSSC[C@H](NC(=O)[C@H](CCC(=O)O)NC(=O)[C@H](CCC(=O)O)NC(=O)CNC1=O)C(=O)N[C@@H](C)C(=O)N[C@H](C(=O)N[C@H](C(=O)N1CCC[C@H]1C(=O)N[C@@H](Cc1ccc(O)cc1)C(=O)O)C(C)C)CSSC[C@H](NC(=O)[C@H](CO)NC(=O)[C@H](CC(C)C)NC(=O)[C@H](CCC(=O)O)NC3=O)C(=O)N[C@@H](CCCNC(=N)N)C(=O)N[C@@H](CO)C(=O)N[C@@H](CC(C)C)C(=O)NCC(=O)N[C@@H](CC(C)C)C(=O)N[C@@H](CC(C)C)C(=O)NCC(=O)N[C@@H](CCCCN)C(=O)N2` (H-AFCNLRRCELSCRSLGLLGKCIGEECACVPY-OH; disulfide 3-21, 8-26, 12-28) were less than 39% and 40%.
Turning to `CC[C@H](C)[C@@H]1NC(=O)[C@@H]2CSSC[C@H](NC(=O)[C@H](Cc3ccccc3)NC(=O)[C@H](C)N)C(=O)N[C@@H](CC(N)=O)C(=O)N[C@@H](CC(C)C)C(=O)N[C@@H](CCCNC(=N)N)C(=O)N[C@@H](CCCNC(=N)N)C(=O)N[C@H]3CSSC[C@H](NC(=O)[C@H](CCC(=O)O)NC(=O)[C@H](CCC(=O)O)NC(=O)CNC1=O)C(=O)N[C@@H](CCCCN)C(=O)N[C@H](C(=O)N[C@H](C(=O)N1CCC[C@H]1C(=O)N[C@@H](Cc1c[nH]cn1)C(=O)O)C(C)C)CSSC[C@H](NC(=O)[C@H](CO)NC(=O)[C@H](CC(C)C)NC(=O)[C@H](CCC(=O)O)NC3=O)C(=O)N[C@@H](CCCNC(=N)N)C(=O)N[C@@H](CO)C(=O)N[C@@H](CC(C)C)C(=O)NCC(=O)N[C@@H](CC(C)C)C(=O)N[C@@H](CC(C)C)C(=O)NCC(=O)N[C@@H](CCCCN)C(=O)N2` (H-AFCNLRRCELSCRSLGLLGKCIGEECKCVPH-OH; disulfide 3-21, 8-26, 12-28), the figures for the inhibition in experiment [1] and in experiment [2] were 40% and less than 39%, respectively.
Regarding `CC[C@H](C)[C@@H]1NC(=O)[C@@H]2CSSC[C@H](NC(=O)[C@H](Cc3ccccc3)NC(=O)[C@H](C)N)C(=O)N[C@@H](CC(N)=O)C(=O)N[C@@H](CC(C)C)C(=O)N[C@@H](CCCNC(=N)N)C(=O)N[C@@H](CCCNC(=N)N)C(=O)N[C@H]3CSSC[C@H](NC(=O)[C@H](CCC(=O)O)NC(=O)[C@H](CCC(=O)O)NC(=O)CNC1=O)C(=O)N[C@@H](CCCCN)C(=O)N[C@H](C(=O)N[C@H](C(=O)N[C@@H](Cc1ccc(O)cc1)C(=O)O)C(C)C)CSSC[C@H](NC(=O)[C@H](CO)NC(=O)[C@H](CC(C)C)NC(=O)[C@H](CCC(=O)O)NC3=O)C(=O)N[C@@H](CCCNC(=N)N)C(=O)N[C@@H](CO)C(=O)N[C@@H](CC(C)C)C(=O)NCC(=O)N[C@@H](CC(C)C)C(=O)N[C@@H](CC(C)C)C(=O)NCC(=O)N[C@@H](CCCCN)C(=O)N2` (H-AFCNLRRCELSCRSLGLLGKCIGEECKCVY-OH; disulfide 3-21, 8-26, 12-28), the results for the inhibition in experiment [1] and in experiment [2] were 40% and less than 39%, respectively.
For the molecule `CC[C@H](C)[C@@H]1NC(=O)[C@@H]2CSSC[C@H](NC(=O)[C@H](Cc3ccccc3)NC(=O)[C@H](C)N)C(=O)N[C@@H](CC(N)=O)C(=O)N[C@@H](CC(C)C)C(=O)N[C@@H](CCCNC(=N)N)C(=O)N[C@@H](CCCNC(=N)N)C(=O)N[C@H]3CSSC[C@H](NC(=O)[C@H](C)NC(=O)[C@H](CCC(=O)O)NC(=O)CNC1=O)C(=O)N[C@@H](CCCCN)C(=O)N[C@H](C(=O)N[C@H](C(=O)N1CCC[C@H]1C(=O)N[C@@H](Cc1ccc(O)cc1)C(=O)O)C(C)C)CSSC[C@H](NC(=O)[C@H](CO)NC(=O)[C@H](CC(C)C)NC(=O)[C@H](CCC(=O)O)NC3=O)C(=O)N[C@@H](CCCNC(=N)N)C(=O)N[C@@H](CO)C(=O)N[C@@H](CC(C)C)C(=O)NCC(=O)N[C@@H](CC(C)C)C(=O)N[C@@H](CC(C)C)C(=O)NCC(=O)N[C@@H](CCCCN)C(=O)N2` (H-AFCNLRRCELSCRSLGLLGKCIGEACKCVPY-OH; disulfide 3-21, 8-26, 12-28), the inhibition in experiment [1] was less than 39%; in experiment [2], 40%.
On to `CC[C@H](C)[C@@H]1NC(=O)[C@@H]2CSSC[C@H](NC(=O)[C@H](Cc3ccccc3)NC(=O)[C@H](C)N)C(=O)N[C@@H](CC(N)=O)C(=O)N[C@@H](CC(C)C)C(=O)N[C@@H](CCCNC(=N)N)C(=O)N[C@@H](CCCNC(=N)N)C(=O)N[C@H]3CSSC[C@H](NC(=O)[C@H](CCC(=O)O)NC(=O)[C@H](CCC(=O)O)NC(=O)CNC1=O)C(=O)N[C@@H](CCCCN)C(=O)N[C@H](C(=O)N[C@H](C(=O)N1CCC[C@H]1C(=O)N[C@@H](C)C(=O)O)C(C)C)CSSC[C@H](NC(=O)[C@H](CO)NC(=O)[C@H](CC(C)C)NC(=O)[C@H](CCC(=O)O)NC3=O)C(=O)N[C@@H](CCCNC(=N)N)C(=O)N[C@@H](CO)C(=O)N[C@@H](CC(C)C)C(=O)NCC(=O)N[C@@H](CC(C)C)C(=O)N[C@@H](CC(C)C)C(=O)NCC(=O)N[C@@H](CCCCN)C(=O)N2` (H-AFCNLRRCELSCRSLGLLGKCIGEECKCVPA-OH; disulfide 3-21, 8-26, 12-28), for which the inhibition in experiment [1] was 40%; in experiment [2] it was less than 39%.
In the case of `CC[C@H](C)[C@@H]1NC(=O)[C@@H]2CSSC[C@H](NC(=O)[C@H](Cc3ccccc3)NC(=O)[C@H](C)N)C(=O)N[C@@H](CC(N)=O)C(=O)N[C@@H](CC(C)C)C(=O)N[C@@H](CCCNC(=N)N)C(=O)N[C@@H](CCCNC(=N)N)C(=O)N[C@H]3CSSC[C@H](NC(=O)[C@H](CCC(=O)O)NC(=O)[C@H](CCC(=O)O)NC(=O)CNC1=O)C(=O)N[C@@H](CCCCN)C(=O)N[C@H](C(=O)N[C@H](C(=O)N[C@@H](Cc1ccc(O)cc1)C(=O)N[C@@H](CC(N)=O)C(=O)O)C(C)C)CSSC[C@H](NC(=O)[C@H](CO)NC(=O)[C@H](CC(C)C)NC(=O)[C@H](CCC(=O)O)NC3=O)C(=O)N[C@@H](CCCNC(=N)N)C(=O)N[C@@H](CO)C(=O)N[C@@H](CC(C)C)C(=O)NCC(=O)N[C@@H](CC(C)C)C(=O)N[C@@H](CC(C)C)C(=O)NCC(=O)N[C@@H](CCCCN)C(=O)N2` (H-AFCNLRRCELSCRSLGLLGKCIGEECKCVYN-OH; disulfide 3-21, 8-26, 12-28), the inhibition is 40% in experiment [1] and less than 39% in experiment [2].
As for `CC[C@H](C)[C@@H]1NC(=O)[C@@H]2CSSC[C@H](NC(=O)[C@H](Cc3ccccc3)NC(=O)[C@H](C)N)C(=O)N[C@@H](CC(N)=O)C(=O)N[C@@H](CC(C)C)C(=O)N[C@@H](CCCNC(=N)N)C(=O)N[C@@H](CCCNC(=N)N)C(=O)N[C@H]3CSSC[C@H](NC(=O)[C@H](CCC(=O)O)NC(=O)[C@H](CCC(=O)O)NC(=O)CNC1=O)C(=O)N[C@@H](CCC(=O)O)C(=O)N[C@H](C(=O)N[C@H](C(=O)N1CCC[C@H]1C(=O)N[C@@H](Cc1ccc(O)cc1)C(=O)O)C(C)C)CSSC[C@H](NC(=O)[C@H](CO)NC(=O)[C@H](CC(C)C)NC(=O)[C@H](CCC(=O)O)NC3=O)C(=O)N[C@@H](CCCNC(=N)N)C(=O)N[C@@H](CO)C(=O)N[C@@H](CC(C)C)C(=O)NCC(=O)N[C@@H](CC(C)C)C(=O)N[C@@H](CC(C)C)C(=O)NCC(=O)N[C@@H](CCCCN)C(=O)N2` (H-AFCNLRRCELSCRSLGLLGKCIGEECECVPY-OH; disulfide 3-21, 8-26, 12-28), the inhibition in experiment [1] is less than 39%; in experiment [2] it was 40%.
